What is called pIC50 is −log10 of the IC50, conventionally taken in molar units. By inhibition is commonly meant the change of the read-out against control, counted positive when it falls.

One assay is filed under the species Homo sapiens. The assay is described as follows: Selectivity index, ratio IC50 for inhibition of recombinant human full-length N-terminal His6-tagged p110beta/untagged full-length p85alpha expressed in baculovirus infected Sf21 cells to ratio IC50 for inhibition of recombinant human full-length N-terminal GST-tagged p110delta/untagged full-length p85alpha expressed in baculovirus infected Sf21 cells.

For assay [1], the target named is MAP kinase-activated protein kinase 3 (Homo sapiens, UniProt Q16644). Briefly: Inhibition of recombinant His-tagged human full length MAPKAPK3 expressed in baculovirus expression system using Ser/Thr-04 peptide as substrate after 1 hr in presence of ATP by Z'LYTE assay.
The target of assay [2] is PI3-kinase p110-delta/p85-alpha (Homo sapiens, UniProt O00329). The assay is described as follows: Inhibition of His-tagged recombinant human PI3K p110delta/p85alpha expressed in baculovirus expression system using PIP2:PS lipid as substrate in presence of ATP after 1 hr by Adapta assay.
Assay [3] deals with Sodium-dependent noradrenaline transporter (Homo sapiens) (UniProt P23975). Briefly: Displacement of [125I]RTI-55 from full length recombinant human NET expressed in MDCK cells at 10 uM after 3 hrs by radiometric scintillation analysis relative to control. It counts as cell-based. Background: In a radioligand displacement assay an active substance lowers the binding of a labelled ligand.
Sodium-dependent noradrenaline transporter (Homo sapiens), sequence (P23975 whole entry): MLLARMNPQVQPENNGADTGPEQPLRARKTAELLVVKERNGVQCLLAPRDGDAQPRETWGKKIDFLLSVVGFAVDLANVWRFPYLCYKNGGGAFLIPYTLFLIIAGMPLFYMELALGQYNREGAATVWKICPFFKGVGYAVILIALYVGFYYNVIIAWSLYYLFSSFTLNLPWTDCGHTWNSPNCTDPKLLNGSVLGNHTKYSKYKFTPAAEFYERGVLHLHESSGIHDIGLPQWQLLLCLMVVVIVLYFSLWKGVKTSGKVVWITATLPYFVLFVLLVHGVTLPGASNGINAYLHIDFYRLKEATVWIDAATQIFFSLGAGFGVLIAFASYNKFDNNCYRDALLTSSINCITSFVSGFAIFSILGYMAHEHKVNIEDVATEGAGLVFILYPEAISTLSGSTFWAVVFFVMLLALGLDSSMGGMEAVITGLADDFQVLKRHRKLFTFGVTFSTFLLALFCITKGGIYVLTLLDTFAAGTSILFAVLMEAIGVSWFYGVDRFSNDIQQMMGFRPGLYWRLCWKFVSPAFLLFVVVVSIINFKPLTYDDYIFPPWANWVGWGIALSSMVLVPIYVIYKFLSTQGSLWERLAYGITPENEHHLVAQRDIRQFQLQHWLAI

Assay [4] concerns the target Melanocortin receptor 3 (Homo sapiens) (UniProt P41968). The assay is described as follows: Displacement of [125I]NDP-alpha-MSH from full length human recombinant MC3 receptor expressed in HEK293 cells at 10 uM measured after 60 mins by radiometric scintillation analysis relative to control. It counts as cell-based.
Assay [5] concerns the target Cysteinyl leukotriene receptor 2 (Homo sapiens) (UniProt Q9NS75). The assay is described as follows: Inhibition of human CYSLt2 receptor at 10 uM relative to control.
Assay [6] has as its target Acetylcholinesterase (Homo sapiens) (UniProt P22303). The assay is described as follows: Inhibition of human recombinant acetylcholine esterase expressed in HEK293 cells at 10 uM using acetylcholine as substrate preincubated for 15 mins followed by substrate addition measured after 20 mins by spectrophotometric analysis relative to control.
In assay [7] the target is Dual specificity protein kinase CLK2 (Homo sapiens, UniProt P49760). Briefly: Inhibition of recombinant human GST-tagged CLK2 catalytic domain (137 to 498 residues) expressed in baculovirus expression system using serine/threonine-6 peptide as substrate incubated for 60 mins in presence of ATP by Z'-LYTE assay.
For a further assay, the target named is Ephrin type-A receptor 8 (Homo sapiens, UniProt P29322). Briefly: Inhibition of recombinant human GST-tagged EPHA8 catalytic domain (565 to 1005 residues) expressed in baculovirus expression system using tyrosine-2 peptide as substrate incubated for 60 mins in presence of ATP by Z'-LYTE assay.
The target in assay [8] is Receptor-type tyrosine-protein kinase FLT3 (Homo sapiens, UniProt P36888). The assay is described as follows: Inhibition of recombinant human His-tagged FLT3 cytoplasmic domain (564 to 958 residues) expressed in baculovirus expression system using tyrosine-2 peptide as substrate incubated for 60 mins in presence of ATP by Z'-LYTE assay.
In assay [9] the target is G protein-coupled receptor kinase 6 (Homo sapiens, UniProt P43250). Briefly: Inhibition of recombinant full length human GST-tagged GRK6 expressed in baculovirus expression system using serine/threonine-16 peptide as substrate incubated for 60 mins in presence of ATP by Z'-LYTE assay.
Assay [10] deals with Insulin-like growth factor 1 receptor (Homo sapiens, UniProt P08069). The assay is described as follows: Inhibition of recombinant human His-tagged IGF1R expressed in baculovirus expression system using tyrosine 1 peptide as substrate incubated for 60 mins in presence of ATP by Z'-LYTE assay.
For assay [11], the target named is Leucine-rich repeat serine/threonine-protein kinase 2 (Homo sapiens, UniProt Q5S007, G2019S). Briefly: Inhibition of recombinant human GST-tagged LRRK2 G2019S mutant catalytic domain (970 to 2527 residues) expressed in baculovirus expression system using LRRKtide as substrate measured after 1 hr in presence of ATP by ADAPTA assay.
Leucine-rich repeat serine/threonine-protein kinase 2, sequence (Q5S007 whole entry G2019S, the tested form may be a part): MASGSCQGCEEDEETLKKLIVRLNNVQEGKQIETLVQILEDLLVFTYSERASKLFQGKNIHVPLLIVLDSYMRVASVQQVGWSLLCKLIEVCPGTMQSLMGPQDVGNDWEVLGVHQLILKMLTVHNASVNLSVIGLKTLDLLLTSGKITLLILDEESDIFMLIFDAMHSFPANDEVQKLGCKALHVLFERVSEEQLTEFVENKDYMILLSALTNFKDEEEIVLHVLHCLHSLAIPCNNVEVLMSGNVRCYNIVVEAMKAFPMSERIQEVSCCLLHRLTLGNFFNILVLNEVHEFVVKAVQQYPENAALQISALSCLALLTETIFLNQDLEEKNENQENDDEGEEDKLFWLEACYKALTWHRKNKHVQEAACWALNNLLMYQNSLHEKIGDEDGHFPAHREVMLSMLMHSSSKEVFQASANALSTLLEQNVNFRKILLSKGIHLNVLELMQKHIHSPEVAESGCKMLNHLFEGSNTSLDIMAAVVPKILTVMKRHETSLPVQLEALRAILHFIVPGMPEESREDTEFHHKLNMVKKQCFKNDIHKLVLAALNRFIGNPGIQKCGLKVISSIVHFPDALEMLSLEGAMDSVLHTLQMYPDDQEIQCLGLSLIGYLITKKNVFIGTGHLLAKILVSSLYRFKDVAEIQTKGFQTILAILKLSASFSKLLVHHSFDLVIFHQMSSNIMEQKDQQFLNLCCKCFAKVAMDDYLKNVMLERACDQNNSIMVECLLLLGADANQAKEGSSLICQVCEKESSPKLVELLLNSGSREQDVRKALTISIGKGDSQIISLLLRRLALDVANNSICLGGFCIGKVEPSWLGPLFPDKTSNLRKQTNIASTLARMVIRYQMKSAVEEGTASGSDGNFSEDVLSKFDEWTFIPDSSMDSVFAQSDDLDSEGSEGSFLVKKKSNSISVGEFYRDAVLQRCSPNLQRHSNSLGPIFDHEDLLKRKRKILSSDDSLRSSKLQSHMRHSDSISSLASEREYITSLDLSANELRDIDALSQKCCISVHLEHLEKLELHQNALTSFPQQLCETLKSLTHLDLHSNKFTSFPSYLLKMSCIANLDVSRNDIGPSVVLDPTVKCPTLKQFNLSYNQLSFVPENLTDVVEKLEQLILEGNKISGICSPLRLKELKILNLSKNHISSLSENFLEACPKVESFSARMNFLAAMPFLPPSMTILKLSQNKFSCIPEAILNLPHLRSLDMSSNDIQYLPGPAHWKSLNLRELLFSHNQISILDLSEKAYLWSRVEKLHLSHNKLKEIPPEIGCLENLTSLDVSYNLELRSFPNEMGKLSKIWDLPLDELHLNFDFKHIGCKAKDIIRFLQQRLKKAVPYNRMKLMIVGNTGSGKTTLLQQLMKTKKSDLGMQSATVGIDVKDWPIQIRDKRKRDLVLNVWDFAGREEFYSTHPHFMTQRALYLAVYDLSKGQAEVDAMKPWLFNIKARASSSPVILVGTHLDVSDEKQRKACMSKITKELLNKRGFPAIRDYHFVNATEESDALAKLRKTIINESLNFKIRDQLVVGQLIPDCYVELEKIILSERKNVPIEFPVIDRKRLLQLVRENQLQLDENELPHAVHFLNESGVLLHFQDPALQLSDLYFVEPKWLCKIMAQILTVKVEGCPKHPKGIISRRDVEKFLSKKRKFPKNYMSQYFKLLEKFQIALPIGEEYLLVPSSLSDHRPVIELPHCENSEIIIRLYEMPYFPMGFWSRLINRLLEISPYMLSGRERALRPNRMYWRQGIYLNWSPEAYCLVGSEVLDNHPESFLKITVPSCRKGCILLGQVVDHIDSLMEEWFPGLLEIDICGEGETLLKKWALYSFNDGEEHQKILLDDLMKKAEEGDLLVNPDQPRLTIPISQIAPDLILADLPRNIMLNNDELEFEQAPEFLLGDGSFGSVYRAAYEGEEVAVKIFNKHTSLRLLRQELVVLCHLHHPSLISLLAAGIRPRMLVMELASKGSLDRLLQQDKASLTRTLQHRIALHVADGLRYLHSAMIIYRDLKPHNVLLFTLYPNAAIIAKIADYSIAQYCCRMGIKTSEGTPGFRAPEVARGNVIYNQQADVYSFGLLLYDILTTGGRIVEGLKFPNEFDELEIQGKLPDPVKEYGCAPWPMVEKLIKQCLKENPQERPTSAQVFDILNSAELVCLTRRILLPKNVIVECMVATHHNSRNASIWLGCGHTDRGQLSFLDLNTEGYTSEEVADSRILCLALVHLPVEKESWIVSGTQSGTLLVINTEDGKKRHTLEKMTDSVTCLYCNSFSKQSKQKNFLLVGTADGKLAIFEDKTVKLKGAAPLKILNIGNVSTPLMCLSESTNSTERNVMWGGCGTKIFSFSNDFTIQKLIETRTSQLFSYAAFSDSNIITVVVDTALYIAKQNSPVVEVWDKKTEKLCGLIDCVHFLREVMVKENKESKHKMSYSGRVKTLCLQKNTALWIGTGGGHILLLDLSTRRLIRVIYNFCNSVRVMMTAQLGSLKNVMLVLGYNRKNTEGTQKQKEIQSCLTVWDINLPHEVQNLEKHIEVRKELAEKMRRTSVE
Assay [12] concerns the target Mitogen-activated protein kinase kinase kinase 8 (Homo sapiens, UniProt P41279). The assay is described as follows: Inhibition of recombinant human GST-tagged MAP3K8 catalytic domain expressed in baculovirus expression system using serine/threonine-3 peptide as substrate incubated for 60 mins in presence of ATP by Z'-LYTE assay.
Assay [13] addresses Mitogen-activated protein kinase kinase kinase kinase 2 (Homo sapiens, UniProt Q12851). The assay is described as follows: Inhibition of recombinant full length human HIs-tagged MAP4K2 expressed in baculovirus expression system using serine/threonine-7 peptide as substrate incubated for 60 mins in presence of ATP by Z'-LYTE assay.
Assay [14] has as its target MAP kinase-interacting serine/threonine-protein kinase 1 (Homo sapiens, UniProt Q9BUB5). The assay is described as follows: Inhibition of recombinant full length human GST-tagged MKNK1 expressed in insect cells using serine/threonine-7 peptide as substrate incubated for 60 mins in presence of ATP by Z'-LYTE assay.
Assay [15] deals with Serine/threonine-protein kinase PLK3 (Homo sapiens, UniProt Q9H4B4). The assay is described as follows: Inhibition of recombinant human GST-tagged PLK3 catalytic domain (58 to 340 residues) expressed in baculovirus expression system using serine/threonine-16 peptide as substrate incubated for 60 mins in presence of ATP by Z'-LYTE assay.
For assay [16], the target named is Protein kinase C epsilon type (Homo sapiens, UniProt Q02156). Briefly: Inhibition of recombinant full length human GST-tagged PRKCE expressed in insect expression system using serine/threonine-7 peptide as substrate incubated for 60 mins in presence of ATP by Z'-LYTE assay.
Assay [17] addresses Protein kinase C eta type (Homo sapiens, UniProt P24723). Briefly: Inhibition of recombinant full length human His-tagged PRKCH expressed in baculovirus expression system using serine/threonine-7 peptide as substrate incubated for 60 mins in presence of ATP by Z'-LYTE assay.
Assay [18] has as its target Proto-oncogene tyrosine-protein kinase Src (Homo sapiens, UniProt P12931). Briefly: Inhibition of recombinant full length human His-tagged SRC expressed in baculovirus expression system using tyrosine-2 peptide as substrate incubated for 60 mins in presence of ATP by Z'-LYTE assay.
In another assay the target is SRSF protein kinase 2 (Homo sapiens, UniProt P78362). Briefly: Inhibition of recombinant full length human GST-tagged SRPK2 expressed in baculovirus expression system using serine/threonine-07 peptide as substrate incubated for 60 mins in presence of ATP by Z'-LYTE assay.
Assay [19] addresses Testis-specific serine/threonine-protein kinase 1 (Homo sapiens, UniProt Q9BXA7). The assay is described as follows: Inhibition of recombinant full length human His-tagged TSSK1 expressed in baculovirus expression system using serine/threonine-4 peptide as substrate incubated for 60 mins in presence of ATP by Z'-LYTE assay.
The target of assay [20] is Serine/threonine-protein kinase 25 (Homo sapiens, UniProt O00506). The assay is described as follows: Inhibition of recombinant full length human GST-tagged YSK1 expressed in baculovirus expression system using serine/threonine-7 peptide as substrate incubated for 60 mins in presence of ATP by Z'-LYTE assay.
In assay [21] the target is Serine/threonine-protein kinase 4 (Homo sapiens, UniProt Q13043). Briefly: Inhibition of recombinant full length human GST-tagged MST1 expressed in baculovirus expression system using serine/threonine-7 peptide as substrate incubated for 60 mins in presence of ATP by Z'-LYTE assay.

SMILES strings stand for the structures. pIC50: −log10 of the molar value.

Protein kinase C eta type, sequence (P24723 whole entry): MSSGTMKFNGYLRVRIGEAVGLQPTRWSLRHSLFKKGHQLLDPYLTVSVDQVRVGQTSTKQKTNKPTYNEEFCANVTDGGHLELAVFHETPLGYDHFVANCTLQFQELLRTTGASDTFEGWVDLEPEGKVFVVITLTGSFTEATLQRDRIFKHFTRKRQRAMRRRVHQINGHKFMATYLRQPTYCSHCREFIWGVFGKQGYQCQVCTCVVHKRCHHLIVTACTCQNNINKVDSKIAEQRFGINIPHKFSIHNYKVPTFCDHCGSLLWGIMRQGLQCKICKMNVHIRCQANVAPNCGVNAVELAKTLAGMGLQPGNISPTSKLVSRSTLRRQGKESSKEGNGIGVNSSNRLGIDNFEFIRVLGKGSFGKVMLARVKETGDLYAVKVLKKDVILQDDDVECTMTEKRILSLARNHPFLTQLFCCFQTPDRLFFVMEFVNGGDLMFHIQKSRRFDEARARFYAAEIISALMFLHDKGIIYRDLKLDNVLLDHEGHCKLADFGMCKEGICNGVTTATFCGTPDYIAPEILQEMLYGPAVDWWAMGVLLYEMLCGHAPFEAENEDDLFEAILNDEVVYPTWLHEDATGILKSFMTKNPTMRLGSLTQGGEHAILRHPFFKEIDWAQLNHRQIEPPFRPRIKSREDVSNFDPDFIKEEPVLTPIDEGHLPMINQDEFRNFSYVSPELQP
Melanocortin receptor 3 (Homo sapiens), sequence (P41968 whole entry): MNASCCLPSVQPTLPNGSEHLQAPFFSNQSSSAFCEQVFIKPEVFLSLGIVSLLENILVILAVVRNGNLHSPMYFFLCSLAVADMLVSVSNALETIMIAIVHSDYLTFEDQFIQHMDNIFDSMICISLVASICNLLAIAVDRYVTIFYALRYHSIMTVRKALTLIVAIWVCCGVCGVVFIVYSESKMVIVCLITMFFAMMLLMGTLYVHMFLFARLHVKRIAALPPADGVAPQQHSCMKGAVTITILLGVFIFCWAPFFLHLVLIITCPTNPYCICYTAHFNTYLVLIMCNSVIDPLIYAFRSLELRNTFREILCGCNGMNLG
Cysteinyl leukotriene receptor 2 (Homo sapiens), sequence (Q9NS75 whole entry): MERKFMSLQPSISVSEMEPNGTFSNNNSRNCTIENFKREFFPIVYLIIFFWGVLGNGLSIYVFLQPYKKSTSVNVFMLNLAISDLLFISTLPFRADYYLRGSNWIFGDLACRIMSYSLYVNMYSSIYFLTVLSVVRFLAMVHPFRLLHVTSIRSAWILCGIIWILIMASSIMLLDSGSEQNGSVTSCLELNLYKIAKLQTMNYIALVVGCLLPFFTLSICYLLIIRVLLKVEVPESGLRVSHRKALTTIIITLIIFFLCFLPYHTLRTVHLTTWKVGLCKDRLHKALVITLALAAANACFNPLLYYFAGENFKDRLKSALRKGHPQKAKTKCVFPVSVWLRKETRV
Proto-oncogene tyrosine-protein kinase Src, sequence (P12931 2-536 limits assumed): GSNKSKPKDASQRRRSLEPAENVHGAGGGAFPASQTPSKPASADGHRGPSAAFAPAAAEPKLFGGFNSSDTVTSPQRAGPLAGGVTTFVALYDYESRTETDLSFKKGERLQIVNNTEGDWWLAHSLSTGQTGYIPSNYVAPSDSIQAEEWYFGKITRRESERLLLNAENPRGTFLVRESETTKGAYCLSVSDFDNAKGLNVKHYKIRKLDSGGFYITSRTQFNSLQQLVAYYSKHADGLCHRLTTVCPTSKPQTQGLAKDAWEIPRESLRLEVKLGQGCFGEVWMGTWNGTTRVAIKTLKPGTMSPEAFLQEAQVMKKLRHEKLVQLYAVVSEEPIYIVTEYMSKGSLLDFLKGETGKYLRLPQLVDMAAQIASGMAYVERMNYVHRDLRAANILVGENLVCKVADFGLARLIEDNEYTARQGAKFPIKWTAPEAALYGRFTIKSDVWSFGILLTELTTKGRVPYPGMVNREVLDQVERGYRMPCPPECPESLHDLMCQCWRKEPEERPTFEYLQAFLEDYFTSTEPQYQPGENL

Turning to `C[C@@H]1C[C@H]1C(=O)N1CCN(c2cnc(C#N)c(-c3cnn(C)c3)n2)C[C@H]1C`, the Ratio IC50 in the assay filed under Homo sapiens turned out to be 2990. Also, the pIC50 in assay [1] is 4.63; in assay [2], 6.05; in [7], less than 4.00; on Ephrin type-A receptor 8 it was less than 4.00; in [8] it was less than 4.00; in assay [9], less than 4.00. Also, the pIC50 in assay [10], in assay [11], in assay [12], in assay [13], in assay [14] and in [15] was less than 4.00 throughout. The pIC50 (in assay [16]; in [17]; in [18]; at SRSF protein kinase 2; in assay [19]; in assay [20]) was less than 4.00 in each case. The pIC50 in [21] is less than 4.00. Further, the inhibition in assay [3] was 3%; in assay [4], 2%; in assay [5], 15%; in [6], 37%.

These data come from ChEMBL document CHEMBL4602617, “Discovery and optimization of heteroaryl piperazines as potent and selective PI3Kδ inhibitors” (Bioorg Med Chem Lett, 2020).
